Experimental data reported in patent publication US8691811B2, “Quinazolinone linked pyrrolo[2,1-c][1,4]benzodiazepine hybrids as potential anticancer agents and process for the preparation thereof” (Council of Scientific & Industrial Research, priority 2008, dated 2014).

Assays:
[1] = test system: sixty human tumour cell lines; experiment: NCI in vitro cytotoxicity screen (SRB, 48 h), all cell lines; format: cell-based; settings: 48 h exposure
Method: (§1) The C8-linked quinazolinone-PBD hybrid (5d) has been tested against sixty human tumour cell lines derived from nine cancer types (leukemia, non-small cell lung cancer, colon cancer, CNS cancer, melanoma, ovarian cancer, renal cancer, prostate cancer and breast cancer) as per NCI protocol. For each compound, dose response curves for individual cell lines have been measured at a minimum of five concentrations at 10 fold dilutions. A protocol of 48 h continuous drug exposure has been used, and a sulforhodamine B (SRB) protein assay was used to estimate cell viability or growth. The concentration for 50% cell growth inhibition (GI50), total cell growth inhibition (TGI, 0% growth) and 50% cell death (LC50, […]) compared with the control has been calculated (Table-1). Compound 5d has been evaluated for their in vitro cytotoxicity in sixty cell lines from nine human cancer types of lung (Hop-62, NCI-H226, NCI-H522), leukemia (K-562, SR), colon (HCT-116, HCT-15, HCC-2998), CNS(SF-539), melanoma (SK-MEL-5, UACC-62, M14), ovarian (IGROV1), renal (A498), prostate (PC3) breast (BT-549, MDA-MB-435, HS578T) origin. The results are expressed as percent of cell growth determined relative to that of untreated control cells (Table 2). The representative compound 5d has shown significant cytotoxicity against some cancer cell lines.

Leukemia cell lines = experiment: NCI cytotoxicity (SRB, 48 h), leukemia panel; format: cell-based, human; settings: Leukemia panel average
Method: as §1

[2] = test system: Non-small cell lung cancer cell lines; experiment: NCI cytotoxicity (SRB, 48 h), non-small cell lung panel; format: cell-based, human; settings: Non-small-cell lung panel average
Method: as §1

Colon cancer cell lines = experiment: NCI cytotoxicity (SRB, 48 h), colon panel; format: cell-based, human; settings: Colon panel average
Method: as §1

CNS cancer cell lines = experiment: NCI cytotoxicity (SRB, 48 h), CNS panel; format: cell-based, human; settings: CNS panel average
Method: as §1

Melanoma cell lines = experiment: NCI cytotoxicity (SRB, 48 h), melanoma panel; format: cell-based, human; settings: Melanoma panel average
Method: as §1

Renal cancer cell lines = experiment: NCI cytotoxicity (SRB, 48 h), renal panel; format: cell-based, human; settings: Renal panel average
Method: as §1

[3] = test system: Prostate cancer cell lines; experiment: NCI cytotoxicity (SRB, 48 h), prostate panel; format: cell-based, human; settings: Prostate panel average
Method: as §1

CCRF-CEM = experiment: NCI cytotoxicity (SRB, 48 h), CCRF-CEM; format: cell-based, human; settings: leukemia
Method: as §1

HL-60(TB) = experiment: NCI cytotoxicity (SRB, 48 h), HL-60(TB); format: cell-based, human; settings: leukemia
Method: as §1

K-562 = experiment: NCI cytotoxicity (SRB, 48 h), K-562; format: cell-based, human; settings: K-562, leukemia
Method: as §1

SR = experiment: NCI cytotoxicity (SRB, 48 h), SR; format: cell-based, human; settings: leukemia
Method: as §1

HOP-92 = experiment: NCI cytotoxicity (SRB, 48 h), HOP-92; format: cell-based, human; settings: HOP-92, non-small cell lung
Method: as §1

NCI-H23 = experiment: NCI cytotoxicity (SRB, 48 h), NCI-H23; format: cell-based, human; settings: NCI-H23, non-small cell lung
Method: as §1

NCI-H522 = experiment: NCI cytotoxicity (SRB, 48 h), NCI-H522; format: cell-based, human; settings: NCI-H522, non-small cell lung
Method: as §1

HCC-2998 = experiment: NCI cytotoxicity (SRB, 48 h), HCC-2998; format: cell-based, human; settings: HCC-2998, colon
Method: as §1

HCT-15 = experiment: NCI cytotoxicity (SRB, 48 h), HCT-15; format: cell-based, human; settings: HCT-15, colon
Method: as §1

HT29 = experiment: NCI cytotoxicity (SRB, 48 h), HT29; format: cell-based, human; settings: HT29, colon
Method: as §1

SNB-75 = experiment: NCI cytotoxicity (SRB, 48 h), SNB-75; format: cell-based, human; settings: SNB-75, CNS
Method: as §1

SK-MEL-28 = experiment: NCI cytotoxicity (SRB, 48 h), SK-MEL-28; format: cell-based, human; settings: SK-MEL-28, melanoma
Method: as §1

UACC-257 = experiment: NCI cytotoxicity (SRB, 48 h), UACC-257; format: cell-based, human; settings: UACC-257, melanoma
Method: as §1

OVCAR-3 = experiment: NCI cytotoxicity (SRB, 48 h), OVCAR-3; format: cell-based, human; settings: OVCAR-3, ovarian
Method: as §1

OVCAR-4 = experiment: NCI cytotoxicity (SRB, 48 h), OVCAR-4; format: cell-based, human; settings: OVCAR-4, ovarian
Method: as §1

PC-3 = experiment: NCI cytotoxicity (SRB, 48 h), PC-3; format: cell-based, human; settings: PC-3, prostate
Method: as §1

NCI/ADR-RES = experiment: NCI cytotoxicity (SRB, 48 h), NCI/ADR-RES; format: cell-based, human; settings: breast
Method: as §1

BT-549 = experiment: NCI cytotoxicity (SRB, 48 h), BT-549; format: cell-based, human; settings: BT-549, breast
Method: as §1

[4] = test system: duplex-form calf thymus DNA (CT-DNA); experiment: Thermal denaturation studies with calf thymus DNA; format: binding; settings: [PBD]:[DNA] molar ratio 1:5, CT-DNA 100 μM, ligand 20 μM, pH 7.00
Method: Compounds have been subjected to thermal denaturation studies with duplex-form calf thymus DNA (CT-DNA) using a modification of a reported procedure. Working solutions in aqueous buffer ([…] NaH2PO4/Na2HPO4, 1 mM Na2EDTA, pH 7.00+0.01). containing CT-DNA (100 μm in phosphate) and the PBD (20 μm) have been prepared by addition of concentrated PBD solutions in DMSO to obtain a fixed [PBD]/[DNA] molar ratio of 1:5. The DNA-PBD solutions have been incubated at 37° C. for 0 and 18 hrs prior to analysis. Samples have been monitored at 260 nm using a Beckman DU-800 spectrophotometer fitted with high performance temperature controller, and heated at 1° C. min^−1 in the 40-110° C. range. DNA helix→coil transition temperatures (Tm) have been obtained from the maxima in the d(A260)/dT derivative plots. Drug-induced alterations in DNA melting behavior are given by: ΔTm=Tm(DNA+PBD)−Tm(DNA alone), where the Tm value for the PBD-free CT-DNA is 68.5±0.01.
The DNA-binding for these novel C8-linked quinazolinone-PBD hybrids has been examined by thermal denaturation studies using calf thymus (CT) DNA. […] Data for 5b, 5c, 5d, and 5k, 5l, 5m and DC-81 are included in Table 5 for comparison.

Q: How did the GI50 ([1]; bound over all sixty cell lines, read-out: GI50 value against sixty cell lines in nine cell panels) turn out when `COc1cc2c(cc1OCCCCCOc1ccc(-n3c(C)nc4ccccc4c3=O)cc1)N=C[C@@H]1CCCN1C2=O` [5d, 7-methoxy-8-{5-[4-(2-methyl-4-oxo-3,4-dihydro-3-quinazolinyl)phenoxy]pentyloxy-}-(11aS)-1,2,3,11a-tetrahydro-5H-pyrrolo[2,1-c][1,4]benzodiazepine-5-one] was run?
A: Its GI50 is under 1.73 µM.

Q: And the “Log10 GI50 mean graph midpoint (MG_MID)” value ([1]; human tumour cell lines)?
A: Its value is −6.63.

Q: What about the “Log10 LC50 mean graph midpoint (MG_MID)” value ([1]; human tumour cell lines) of the same compound?
A: Its value is −5.21.

Q: And the “Log10 TGI mean graph midpoint (MG_MID)” value ([1]; human tumour cell lines)?
A: The value was −6.15.

Q: And the “Log10 GI50” value (Leukemia cell lines)?
A: Its value is −6.85 mol/L.

Q: And the “Log10 LC50” value (Leukemia cell lines)?
A: Its value is −5.30.

Q: What about the “Log10 GI50” value [2] of the same compound?
A: The value was −6.59 mol/L.

Q: What about the “Log10 LC50” value [2] of the same compound?
A: The value was −5.02.

Q: What about the “Log10 GI50” value (Colon cancer cell lines) of the same compound?
A: The value was −6.59 mol/L.

Q: What about the “Log10 LC50” value (Colon cancer cell lines) of the same compound?
A: The value was −5.49.

Q: What about the “Log10 GI50” value (CNS cancer cell lines) of the same compound?
A: The value was −6.59 mol/L.

Q: What about the “Log10 LC50” value (CNS cancer cell lines) of the same compound?
A: The value was −4.88.

Q: What about the “Log10 GI50” value (Melanoma cell lines) of the same compound?
A: The value was −6.65 mol/L.

Q: What about the “Log10 LC50” value (Melanoma cell lines) of the same compound?
A: The value was −5.90.

Q: What about the “Log10 GI50” value (Renal cancer cell lines) of the same compound?
A: Its value is −6.62 mol/L.

Q: And the “Log10 LC50” value (Renal cancer cell lines)?
A: The value was −5.09.

Q: What about the “Log10 GI50” value [3] of the same compound?
A: The value was −6.55 mol/L.

Q: And the “Log10 LC50” value [3]?
A: Its value is −5.19.

Q: What about the GI50 (CCRF-CEM) of the same compound?
A: The GI50 was 0.16 µM.

Q: What about the GI50 (HL-60(TB)) of the same compound?
A: Its GI50 is 0.18 µM.

Q: And the GI50 (K-562)?
A: The GI50 was 0.06 µM.

Q: And the GI50 (SR)?
A: The GI50 was 0.11 µM.

Q: And the GI50 (HOP-92)?
A: Its GI50 is 0.35 µM.

Q: And the GI50 (NCI-H23)?
A: Its GI50 is 0.23 µM.

Q: And the GI50 (NCI-H522)?
A: The GI50 was 0.12 µM.

Q: What about the GI50 (HCC-2998) of the same compound?
A: The GI50 was 0.26 µM.

Q: What about the GI50 (HCT-15) of the same compound?
A: The GI50 was 1.09 µM.

Q: And the GI50 (HT29)?
A: Its GI50 is 0.26 µM.

Q: And the GI50 (SNB-75)?
A: Its GI50 is 0.38 µM.

Q: And the GI50 (SK-MEL-28)?
A: The GI50 was 0.2 µM.

Q: And the GI50 (UACC-257)?
A: Its GI50 is 0.39 µM.

Q: What about the GI50 (OVCAR-3) of the same compound?
A: The GI50 was 0.2 µM.

Q: What about the GI50 (OVCAR-4) of the same compound?
A: The GI50 was 0.37 µM.

Q: What about the GI50 (PC-3) of the same compound?
A: Its GI50 is 0.29 µM.

Q: What about the GI50 (NCI/ADR-RES) of the same compound?
A: Its GI50 is 1.73 µM.

Q: And the GI50 (BT-549)?
A: Its GI50 is 0.11 µM.

Q: What about the “ΔTm after incubation at 37° C. for 0 h” value ([4]; 0 h) of the same compound?
A: Its value is 1.1 °C.

Q: What about the “ΔTm after incubation at 37° C. for 18 h” value ([4]; 18 h) of the same compound?
A: The value was 2.3 °C.
